Assay results taken from the supplement of paper PMC10307832.

How the values were obtained:
Assay in all cases: relative viability (nuclei count vs DMSO), 5 days (fraction); higher = more cells survive
4EGI-1 + Olaparib = compound: O=C(O)C(Cc1ccccc1[N+](=O)[O-])=NNc1nc(-c2ccc(Cl)c(Cl)c2)cs1 (mixture of isomers) [4EGI-1] + O=C(c1cc(Cc2n[nH]c(=O)c3ccccc23)ccc1F)N1CCN(C(=O)C2CC2)CC1 [Olaparib] (partner 8 µM)
Summary of the method: (§1)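 Values are medians from duplicate plates. Each reflects relative viability, defined as the nuclei count of treated wells over that of vehicle wells. Lung cancer cell lines in 1536-well plates were pin-tool dosed one day after seeding with one drug alone or with a fixed anchor-drug dose plus five library-drug doses (not always all listed) in √10 steps, then fixed, stained and imaged at 4× after 5 days.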

4EGI-1 + Crizotinib = compound: O=C(O)C(Cc1ccccc1[N+](=O)[O-])=NNc1nc(-c2ccc(Cl)c(Cl)c2)cs1 (mixture of isomers) [4EGI-1] + C[C@@H](Oc1cc(-c2cnn(C3CCNCC3)c2)cnc1N)c1c(Cl)ccc(F)c1Cl [Crizotinib] (partner 1 µM)
Summary of the method: as §1

XMD8-85 + Linsitinib = compound: CN1CCN(CC1)C2=CC(=C(C=C2)NC3=NC=C4C(=N3)N(C5=CC=CC=C5C(=O)N4C)C)OC [XMD8-85] + C[C@]1(O)C[C@@H](c2nc(-c3ccc4ccc(-c5ccccc5)nc4c3)c3c(N)nccn32)C1 [Linsitinib] (partner 1 µM)
Summary of the method: as §1

4EGI-1 + Pemetrexed = compound: O=C(O)C(Cc1ccccc1[N+](=O)[O-])=NNc1nc(-c2ccc(Cl)c(Cl)c2)cs1 (mixture of isomers) [4EGI-1] + Nc1nc2[nH]cc(CCc3ccc(C(=O)N[C@@H](CCC(=O)O)C(=O)O)cc3)c2c(=O)[nH]1 [Pemetrexed] (partner 0.2 µM)
Summary of the method: as §1

Row | Cell Line | relative viability (4EGI-1 + Olaparib; first compound 0.5 µM) | relative viability (4EGI-1 + Olaparib; first compound 1.581 µM) | relative viability (4EGI-1 + Olaparib; first compound 5 µM) | relative viability (4EGI-1 + Olaparib; first compound 15.81 µM) | relative viability (4EGI-1 + Olaparib; first compound 50 µM) | relative viability (4EGI-1 + Crizotinib; first compound 0.5 µM) | relative viability (4EGI-1 + Crizotinib; first compound 1.581 µM) | relative viability (4EGI-1 + Crizotinib; first compound 5 µM) | relative viability (4EGI-1 + Crizotinib; first compound 15.81 µM) | relative viability (4EGI-1 + Crizotinib; first compound 50 µM) | relative viability (XMD8-85 + Linsitinib; first compound 0.08 µM) | relative viability (XMD8-85 + Linsitinib; first compound 0.253 µM) | relative viability (XMD8-85 + Linsitinib; first compound 0.8 µM) | relative viability (XMD8-85 + Linsitinib; first compound 2.53 µM) | relative viability (XMD8-85 + Linsitinib; first compound 8 µM) | relative viability (4EGI-1 + Pemetrexed; first compound 0.5 µM) | relative viability (4EGI-1 + Pemetrexed; first compound 1.581 µM) | relative viability (4EGI-1 + Pemetrexed; first compound 5 µM) | relative viability (4EGI-1 + Pemetrexed; first compound 15.81 µM) | relative viability (4EGI-1 + Pemetrexed; first compound 50 µM)
1 | NCI-H1355 | 0.86 | 0.742 | 0.795 | 0.469 | 0.334 | 1.18 | 0.952 | 1.03 | 0.779 | 0.748 | 0.807 | 0.913 | 0.828 | 0.715 | 0.829 | 0.967 | 0.927 | 0.99 | 0.963 | 0.589
2 | NCI-H1437 | 0.655 | 0.625 | 0.589 | 0.395 | 0.194 | 0.931 | 0.9 | 0.77 | 0.837 | 0.315 | 0.902 | 0.944 | 1.09 | 0.92 | 0.413 | 0.335 | 0.312 | 0.313 | 0.271 | 0.191
3 | NCI-H1651 | 0.186 | 0.176 | 0.185 | 0.189 | 0.151 | 0.853 | 0.823 | 0.911 | 0.803 | 0.836 | 0.957 | 0.909 | 0.945 | 1.08 | 0.659 | 0.599 | 0.576 | 0.636 | 0.52 | 0.412
4 | NCI-H1666 | 0.74 | 0.727 | 0.778 | 0.622 | 0.488 | 1.12 | 1.03 | 1.19 | 0.632 | 0.253 | 1.04 | 0.79 | 0.859 | 0.769 | 0.696 | 0.898 | 0.889 | 0.891 | 0.711 | 0.641
5 | NCI-H1734 | 0.642 | 0.512 | 0.695 | 0.435 | 0.244 | 0.817 | 0.695 | 0.72 | 0.605 | 0.437 | 1.01 | 0.766 | 0.863 | 0.816 | 0.607 | 0.403 | 0.433 | 0.464 | 0.441 | 0.362
6 | NCI-H1755 | 0.936 | 0.811 | 0.858 | 0.78 | 0.616 | 0.854 | 0.824 | 0.875 | 0.836 | 0.318 | 1.06 | 1.01 | 1 | 1.09 | 0.907 | 0.424 | 0.428 | 0.417 | 0.561 | 0.351
7 | NCI-H1915 | 0.261 | 0.207 | 0.275 | 0.207 | 0.152 | 0.924 | 0.62 | 0.847 | 0.907 | 0.477 | 1.15 | 1.15 | 1.08 | 1.16 | 0.999 | 0.513 | 0.407 | 0.451 | 0.488 | 0.263
8 | NCI-H1944 | 0.506 |  | 0.391 | 0.308 | 0.298 | 1.18 |  | 1.01 | 0.981 | 0.599 | 1.1 | 1.26 | 1.25 | 1.44 | 1.04 | 0.683 |  | 0.668 | 0.586 | 0.331
9 | NCI-H1975 | 0.893 | 0.682 | 0.805 | 0.812 | 0.292 | 0.951 | 0.889 | 0.939 | 0.972 | 0.636 | 1.01 | 0.908 | 0.981 | 1.03 | 0.498 | 0.298 | 0.274 | 0.287 | 0.283 | 0.21
10 | NCI-H1993 | 1.11 | 0.965 | 1.21 | 0.967 | 0.522 | 0.943 | 0.776 | 0.92 | 0.629 | 0.688 | 0.814 | 0.669 | 0.812 | 0.718 | 0.704 | 0.529 | 0.569 | 0.541 | 0.518 | 0.481
11 | NCI-H2009 | 0.768 | 0.63 | 0.647 | 0.421 | 0.374 | 1.12 | 1.05 | 1.06 | 0.988 | 0.247 | 1.17 | 1.12 | 1.21 | 1.23 | 0.636 | 1.01 | 1 | 1.04 | 0.951 | 0.805
12 | NCI-H2023 | 0.5 | 0.306 | 0.432 | 0.127 | 0.0742 | 0.766 |  | 0.637 | 0.442 | 0.302 | 0.564 | 0.811 | 0.76 | 0.657 | 0.34 | 0.263 |  | 0.223 | 0.164 | 0.101
13 | NCI-H2085 | 0.764 | 0.72 | 0.739 | 0.726 | 0.374 | 0.916 | 0.901 | 0.86 | 0.784 | 0.578 | 0.585 | 0.943 | 0.935 | 0.885 | 0.674 | 0.979 | 0.954 | 0.915 | 0.646 | 0.621
